From patent US20150329883A1 (Samsung Electronics Co., Ltd., priority 2014, published 2015)
In brackets after ≈: the same amount, converted by molar mass. Several values for one entry are separate records, joined by “and”; a condition that tells them apart may be missing. Equal entries are not always repeated. Where two headings read alike, the source gives them in different places.

Assays:
[1] = tested on: S003/pGEX4-NCgl0275 strain; assay: microbe, parasite or virus in culture
From the text: A strain that overexpresses the fourteen SRGs was obtained by cloning the SRGs to Xhol/BamHI restriction site of a pGEX-4 vector to be expressed under an influence of a Ptuf promoter as described in “2. Preparation of pGEX_Ptuf::Ncgl1853, Ncgl1855, Ncgl2988, Ncgl2425, Ncgl2404, Ncgl0368, Ncgl2877, Ncgl0275, Ncgl2359, Ncgl1525, Ncgl0976, Ncgl2673, Ncgl2297, and Ncgl1524 vector” under “Material and Method”, and then introducing each of the vectors thus obtained to a Corynebacterium glutamicum S003 strain.

[2] = tested on: Corynebacterium S003 strain (Δldh, Δpta-ackA, ΔpoxB, and ΔactA); assay: microbe, parasite or virus in culture; conditions: for IC50: Corynebacterium
Procedure: In particular, for a seed culture, the strain was streaked on an active plate including agar 5 g/L of yeast extract, 10 g/L of beef extract, 10 g/L of polypeptone, 5 g/L of NaCl, and 20 g/L of agar, and then cultured at a temperature of 30° C. for about 48 hours. A single colony obtained therefrom was inoculated in 5 ml of a BHIS medium (including 37 g/L of brain-heart infusion agar, 91 g/L of D-sorbitol, pH 7.0) and grown overnight at a temperature of 30° C.
1 ml of the obtained culture solution was inoculated in a 25 ml of BHIS in a 250 ml flask and grown until an OD600 value was 5.0. The culture solution was centrifuged, a supernatant thereof was removed to collect the microorganism only, and the microorganism was washed with CGXII minimal medium. The CGXII minimal medium includes 20 g/L of (NH4)2SO4, 5 g/L of urea, 1 g/L of KH2PO4, 1 g/L of K2HPO4, 0.25 g/L of MgSO4.7H2O, 10 mg/L of CaCl2, 10 mg/L of FeSO4.7H2O, 0.1 mg/L of MnSO4.H2O, 1 mg/L of ZnSO4.7H2O, 0.2 mg/L of CuSO4.5H2O, […], 0.2 mg/L of biotin, 42 g/L of 3-morpholinopropanesulfonic acid (MOPS), and 4% (w/v) of glucose.

[3] = tested on: Corynebacterium glutamicum S003 strain; conditions: 0.0625 M succinic acid, anaerobic, 5 hours, vs control without succinic acid
Procedure: After isolating total RNA from the cultured cells by using RNeasy midi kit (Qiagen), a transciptome was analyzed by using a Corynebacterium glutamicum ATCC 13032, 3×20K chip microarray (MYcroarray.com) according the protocol of the same manufacturer. 6134 unique probes are immobilized on the chip, where each of the probes is a three-times repeat.

[4] = 0.25 M succinic acid, anaerobic, S003 strain

O=C(O)CCC(=O)O [succinic acid]
IC50 ([1]; Corynebacterium glutamicum, read-out: IC50 value of the glucose uptake rate): 70.8 mg/mL (≈ 600 mM)
increase of IC50 compared to the control group ([1]; S003/pGEX4-NCgl0275 strain vs control): about 5.45 fold
glucose uptake rate compared with control group ([2]; 0.0625 M succinic acid, after 15 hours): the same
glucose uptake ([2]; 0.0625 M succinic acid, within the first 5 hours): suppressed
decrease of glucose uptake rate [2, 4]: about 66.4%
succinic acid production [2, 4]: almost not produced
IC50 ([2]; read-out: IC50 value of the glucose uptake rate): 13 mg/mL (≈ 110 mM)
IC50 ([2]; read-out: IC50 value of the succinic acid production): 100 mM and 11800 µg/mL
Fold of reduction of expression, Ncgl0275 (whiB4) [3]: 1.56 fold
Fold of reduction of expression, Ncgl0368 [3]: 1.60 fold
Fold of reduction of expression, Ncgl1524 (tpi/tpiA) [3]: 1.700 fold
Fold of reduction of expression, Ncgl1853 (nrdR) [3]: 4.24 fold
Fold of reduction of expression, Ncgl1855 (lexA) [3]: 2.44 fold
Fold of reduction of expression, Ncgl2297 (mdh) [3]: 1.700 fold
Fold of reduction of expression, Ncgl2359 [3]: 1.52 fold
Fold of reduction of expression, Ncgl2404 [3]: 1.73 fold
Fold of reduction of expression, Ncgl2425 [3]: 1.74 fold
Fold of reduction of expression, Ncgl2673 (fda) [3]: 1.820 fold
Fold of reduction of expression, Ncgl2877 [3]: 1.57 fold
Fold of reduction of expression, Ncgl2988 (parB) [3]: 1.91 fold
reduction of expression of nine expected transcription regulator genes (NCgl1853, NCgl1855, NCgl0368, NCgl0275, NCgl2359, NCgl2404, NCgl2425, NCgl2988, NCgl2877) [3]: ≥ 1.5 fold
